Source: patent US20110257035A1, “IDENTIFICATION OF SIGNATURE GENES ASSOCIATED WITH HEPATOCELLULAR CARCINOMA” (Bayer Healthcare LLC, priority 2008, published 2011)
Entries after “also recorded” stand apart in the source; their conditions may differ.

Columns and labels:
Type in all cases: in vivo, human
plasma Ras p21 = experiment: Plasma Ras p21 ELISA, baseline vs C3D1, HCC patients; conditions: for Ras p21 Δ from BL (e) / mean change in sorafenib arm: C3D1, mean of per-subject absolute change, p vs placebo 0.046
Procedure: ELISA kits for Ras p21 (cat #06490009) were from Oncogene Science Biomarker Group, part of Siemens Diagnostics, Cambridge, Mass. This assay detects all forms of circulating Ras p21 (H-Ras, N-Ras, and […]).
After washing, a streptavidin-horseradish peroxidase conjugate was added.

plasma Ang2 = experiment: Plasma Ang2 level, baseline vs C3D1, HCC patients
plasma IGF-2 = experiment: Plasma IGF-2 level, baseline vs C3D1, HCC patients
plasma c-KIT (s-c-Kit) = experiment: Plasma c-KIT ELISA, baseline vs cycle 3 day 1 (C3D1), HCC patients
Procedure: Plasma samples were obtained from patients at the time of screening, C3D1, and at the end of treatment visit.
All six assays were sandwich immunoassays obtained from commercial sources. All assays were performed according to the manufacturers' protocols, as summarized below. All samples were assayed in duplicate and the average value was used for correlative analysis.
ELISA kits for VEGF (cat #DVE00), s-VEGFR-2 (cat #DVR200), HGF (cat #DHG00), and c-KIT (cat #DSCR00) were obtained from R&D Systems.
A monoclonal capture antibody specific to the target protein was provided pre-coated in microplate wells. Appropriately diluted samples and standards were pipetted into the wells, allowing capture of the target protein by the immobilized antibodies. Unbound sample was washed away, and a horseradish peroxidase-conjugated antibody also specific for the target protein was added to the wells. Wells were washed again, and a substrate solution was added to each well. The colored reaction product was measured spectrophotometrically and was translated to the quantity (pg/mL or ng/mL) of biomarker protein in the sample by use of a simultaneously generated standard curve.

plasma HGF = experiment: Plasma HGF ELISA, baseline vs C3D1, HCC patients
[1] = test system: hepatocellular carcinoma (HCC); experiment: Overall survival / time to progression in placebo-controlled HCC trial (SHARP), Cox multivariate analysis
Description: Overall survival (OS) is defined as the time from randomization to death due to any cause. Overall survival (OS) of subjects alive at the time of analysis will be censored at their last date of follow-up.
Time to progression (TTP) is defined as the time from randomization to disease progression (radiological only). Patients without tumor progression at the time of analysis will be censored at their last date of tumor evaluation.

plasma bFGF = experiment: Plasma bFGF level, baseline vs C3D1, HCC patients
plasma EGF = experiment: Plasma EGF level, baseline vs C3D1, HCC patients
plasma VEGF = experiment: Plasma VEGF ELISA, baseline vs C3D1, HCC patients
[2] = sorafenib-treated HCC patients, C3D1 vs baseline
[3] = sorafenib arm, C3D1, mean of per-subject absolute change, p vs placebo <0.0001
[4] = plasma level, in response to sorafenib treatment

SMILES: CNC(=O)c1cc(Oc2ccc(NC(=O)Nc3ccc(Cl)c(C(F)(F)F)c3)cc2)ccn1 [Sorafenib]
- Ras p21 Δ from BL (e) / mean change in sorafenib arm (plasma Ras p21; sorafenib arm): -259.8 pg/mL
- Ras p21 Δ from BL (e) / mean change in sorafenib arm (plasma Ras p21; sorafenib arm, listed as sorafenib): -259.8 pg/mL
- Ras p21 Mean (d) (plasma Ras p21; sorafenib arm, C3D1, baseline mean 2115.7): 1144.7 pg/mL
- Direction of change of plasma Ras p21 in response to sorafenib (plasma Ras p21; [2]): attenuated; also recorded: decrease
- Ang2 Δ from BL (e) (plasma Ang2; [3]): -293.0 pg/mL
- Ang2 Mean (d) (plasma Ang2; sorafenib arm, C3D1, baseline mean 7510.0): 6456.4 pg/mL
- Direction of change of plasma Ang2 in sorafenib (plasma Ang2; [2]): attenuated and remain unchanged and does not change significantly and None
- IGF-2 Mean change in sorafenib (plasma IGF-2; [4]): −11.3%
- IGF-2 Δ from BL (e) (plasma IGF-2; sorafenib arm, C3D1, mean of per-subject absolute change, p vs placebo 0.145): -129.4 ng/mL
- IGF-2 Mean (d) (plasma IGF-2; sorafenib arm, C3D1, baseline mean 938.8): 847.9 ng/mL
- Direction of change of plasma IGF-2 in sorafenib (plasma IGF-2; [2]): decreases
- c-KIT Mean change in sorafenib arm (plasma c-KIT (s-c-Kit); [4]): −33.9%
- c-KIT Δ from BL (e) (plasma c-KIT (s-c-Kit); [3]): -4.5 ng/mL
- c-KIT Mean (d) (plasma c-KIT (s-c-Kit); sorafenib arm, C3D1, baseline mean 12.2): 8.6 ng/mL
- Direction of change of plasma c-KIT in response to sorafenib (plasma c-KIT (s-c-Kit); [2]): attenuated; also recorded: decrease
- median absolute change of plasma HGF levels (plasma HGF; intra-patient sorafenib-associated C3D1 change compared to baseline): -294.02 pg/mL
- HGF Mean change in sorafenib arm (plasma HGF; [4]): −7.4%
- HGF Δ from BL (e) (plasma HGF; [3]): -285.0 pg/mL
- HGF Mean (d) (plasma HGF; sorafenib arm, C3D1, baseline mean 2630.0): 2220.3 pg/mL
- Direction of change of plasma HGF in response to sorafenib (plasma HGF; [2]): attenuated; also recorded: decrease
- time to progression and/or overall survival compared to placebo treated subjects ([1]; HCC patients): increases
- Treatment HR for OS ([1]; multivariate analysis of all patients, sorafenib vs placebo, P-value 0.043): 0.779
- bFGF Δ from BL (e) (plasma bFGF; sorafenib arm, C3D1, mean of per-subject absolute change, p vs placebo 0.196): 2.5 pg/mL
- Direction of change of plasma bFGF in sorafenib (plasma bFGF; [2]): None
- EGF Δ from BL (e) (plasma EGF; sorafenib arm, C3D1, mean of per-subject absolute change, p vs placebo 0.240): -8.9 pg/mL
- EGF Mean (d) (plasma EGF; sorafenib arm, C3D1, baseline mean 61.8): 53.4 pg/mL
- Direction of change of plasma EGF in sorafenib (plasma EGF; [2]): decreases; also recorded: Mixed
- VEGF Mean change in sorafenib arm (plasma VEGF; [4]): +195.7%
- VEGF Δ from BL (e) (plasma VEGF; sorafenib arm, C3D1, mean of per-subject absolute change, p vs placebo 0.010): 66.8 pg/mL
- VEGF Mean (d) (plasma VEGF; sorafenib arm, C3D1, baseline mean 100.7): 170.1 pg/mL
- Direction of change of plasma VEGF in response to sorafenib (plasma VEGF; [2]): elevated; also recorded: increase
